Measured values reported in patent publication US6335339B1, “Triazine antiviral compounds” (Scriptgen Pharmaceuticals, Inc., priority 1998, dated 2002).

Tests used:
HBV εRNA = assay: εRNA/oligonucleotide hybridization inhibition assay with rRNA competitor; format: binding, Hepatitis B virus; conditions: for IC50: radiolabeled εRNA, 60-fold excess rRNA competitor; for Specificity: ratio RRE+rRNA IC50/εRNA+rRNA IC50, max = inactive in RRE assay
In short: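 Inhibition of hybridization between 25 nM [32P]-εRNA and 100 nM biotinylated complementary oligonucleotide (50 mM Tris-HCl pH 7.5, 200 mM KCl, 5 mM MgCl2, 60 min, 25 °C), hybrids captured by streptavidin filter and counted. Titrations 0.1-200 μM with 60-fold excess rRNA; specificity = RRE+rRNA IC50/εRNA+rRNA IC50.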

HIV derived RRE RNA = assay: heterologous hybridization inhibition assay with RRE RNA; format: binding; conditions: radiolabeled RRE RNA, rRNA competitor

| SMILES | IC50 (HBV εRNA) | Specificity (HBV εRNA) | RRE + rRNA IC50 (μM) (HIV derived RRE RNA) | IC50 (HIV derived RRE RNA) |
| --- | --- | --- | --- | --- |
| C(=NNc1nc(Nc2ccccc2)nc(N2CCCCC2)n1)c1ccccc1 [Compound 3] | 66.9 µM | max. | inactive |  |
| Cc1[nH]c2ccccc2c1C=NNc1nc(Nc2ccccc2)nc(N2CCOCC2)n1 [Compound 4] | 16.3 µM | max. | inactive |  |
| FC(F)(F)c1cccc(Nc2nc(Nc3cccc(Br)c3)nc(N3CCOCC3)n2)c1 [Compound 38] | 34.9 µM | max. | inactive |  |
| CCCCN(CCCC)c1nc(NN=Cc2c[nH]c3ccccc23)nc(Nc2ccc([N+](=O)[O-])cc2)n1 [Compound 39] | 39.9 µM | max. | inactive |  |
| Cc1ccc(Nc2nc(NN=Cc3ccc(Cl)c(Cl)c3)nc(Nc3ccccc3)n2)c(C)c1 [Compound 40] | 21.9 µM | max. | inactive |  |
| O=[N+]([O-])c1ccc(Nc2nc(N/N=C/c3cccc(Cl)c3)nc(N3CCCCC3)n2)cc1 [Compound 41] | 24.9 µM | max. | inactive |  |
| Cc1ccc(Nc2nc(NN=Cc3ccc(Cl)cc3)nc(Nc3ccccc3)n2)c(C)c1 [Compound 42] | 30 µM | max. | inactive |  |
| Brc1cc2c(cc1C=NNc1nc(NCc3ccccc3)nc(Nc3ccccc3)n1)OCO2 [Compound 43] | 30.1 µM | max. | inactive |  |
| COc1ccc(C=NNc2nc(Nc3ccc([N+](=O)[O-])cc3)nc(N3CCCCC3)n2)cc1 [Compound 44] | 35 µM | max. | inactive |  |
| O=[N+]([O-])c1ccc(C=NNc2nc(Nc3ccccc3)nc(NC3CCCCC3)n2)cc1 [Compound 46] | 23.1 µM | max. | inactive |  |
| Cc1ccc(Nc2nc(NN=Cc3cccc(Br)c3)nc(Nc3ccccc3)n2)c(C)c1 [Compound 49] | 35 µM | max. | inactive |  |
| Cc1[nH]c2ccccc2c1C=NNc1nc(NCc2ccccc2)nc(Nc2ccccc2)n1 [Compound 50] | 39.9 µM | max. | inactive |  |
| Cc1ccc(Nc2nc(NN=Cc3ccc4c(c3)OCO4)nc(Nc3ccccc3)n2)c(C)c1 [Compound 51] | 39.9 µM | max. | inactive |  |
| O=[N+]([O-])c1cc(C=NNc2nc(Nc3ccccc3)nc(N3CCOCC3)n2)ccc1Cl [Compound 52] | 66 µM | max. | inactive |  |
| Oc1ccc(Nc2nc(Nc3cccc(C(F)(F)F)c3)nc(N3CCOCC3)n2)cc1 [Compound 53] | 70.1 µM | max. | inactive |  |
| CC(C)c1ccc(C=NNc2nc(Nc3ccc([N+](=O)[O-])cc3)nc(N3CCCCCC3)n2)cc1 [Compound 56] | 42.1 µM | max. | inactive |  |
| COc1ccc(C=NNc2nc(Nc3ccccc3)nc(Nc3ccc(C)cc3C)n2)c(OC)c1 [Compound 61] | 42.6 µM | max. | inactive |  |
| CC(C)c1ccc(C=NNc2nc(Nc3ccc([N+](=O)[O-])cc3)nc(N3CCCCC3)n2)cc1 [Compound 62] | 54.3 µM | max. | inactive |  |
| CCN(CC)c1nc(N/N=C/c2ccc([N+](=O)[O-])cc2)nc(Nc2cc(C)ccc2C)n1 [Compound 63] | 69 µM | max. | inactive |  |
| CNc1nc(NN=Cc2ccccc2[N+](=O)[O-])nc(Nc2ccccc2)n1 [Compound 65] | 99.9 µM | max. | inactive |  |
| CC(C)(C)Nc1nc(NCc2ccccc2)nc(NN=Cc2ccc3c(c2)OCO3)n1 [Compound 67] | 47.7 µM | max. | inactive |  |
| CCN(CC)c1nc(NN=Cc2ccc(F)cc2)nc(Nc2ccc([N+](=O)[O-])cc2)n1 [Compound 68] | 33 µM | max. | inactive |  |
| CCCCN(CCCC)c1nc(NN=C(C)c2ccccc2)nc(Nc2ccc([N+](=O)[O-])cc2)n1 [Compound 74] | 126 µM | max. | inactive |  |
| CCN(CC)c1nc(NN=Cc2cc([N+](=O)[O-])ccc2OC)nc(Nc2cc(C)ccc2C)n1 [Compound 85] | 53.8 µM | max. | inactive |  |
| Cc1[nH]c2ccccc2c1C=NNc1nc(Nc2ccccc2)nc(N2CCCCC2)n1 [Compound 88] | 11.7 µM | 80.2 |  | 938 µM |
| C(=Cc1ccccc1)C=NNc1nc(NCc2ccccc2)nc(Nc2ccccc2)n1 [Compound 91] | 17.1 µM | 46.8 |  | 800 µM |
| CC(C)(C)Nc1nc(NCc2ccccc2)nc(N/N=C/c2ccccc2F)n1 [Compound 93, 2-fluorobenzaldehyde N-[4-(benzylamino)-6-(tert-butylamino)-1,3,5-triazin-2-yl]hydrazone] | 12.7 µM | max | Inactive |  |
| COc1ccccc1C=NNc1nc(Nc2ccc([N+](=O)[O-])cc2)nc(Nc2ccc(C)c(C)c2)n1 [Compound 94] | 12 µM | 20.8 |  | 250 µM |
